Reference: US5912270A, “Anti-inflammatory compounds” (SmithKline Beecham Corporation, priority 1996, dated 1999)
Counter-ions that a name gives are not always drawn. Like-named read-outs stand apart in the source and are kept apart here. Values belong to the compound of their own block, whether it stands above or below them.

Legend:
CoA-IT = test: Assay (b): microsomal CoA-IT activity assay; assay type: biochemical, human; conditions: U937 microsomes
Text: The following is a method to measure CoA-IT activity and the effects of compounds on CoA-IT activity. The assay is based upon mixing cellular material containing CoA-IT activity with a stable lyso phospholipid such as […] and measuring the production of phospholipid product such as […] occurring in the absence of added CoA or CoA-fatty acids.
Any inflammatory cell that contains high levels of CoA-IT activity can be used, such as neutrophils, macrophages or cell lines such as U937 cells. […] Cells were grown without differentiation (basal state) by any agent, such as dimethyl sulfoxide. As used herein, "inflammatory cells" include, but are not limited to neutrophils, macrophages, monocytes, lymphocytes, eosinophils, basophils, and mast cells.
Microsomes were prepared using standard techniques. In this case, cells were washed with a buffer of 250 mM sucrose, 10 mM Tris, 1 mM EGTA, 1 mM MgCl2, pH 7.4 and ruptured by N2 cavitation (750 psi, 10 minutes). The ruptured cells were centrifuged 1000×g, 5 minutes. The resulting supernatant was centrifuged at 20,000×g,~20 minutes. Microsomes were prepared from this supernatant by centrifugation at 100,000×g, 60 minutes. The resulting pellet was washed once with assay buffer (150 mM NaCl, 10 mM Na2 KPO4, 1 mM EGTA, pH 7.4), recentrifuged and the pellet resuspended in assay buffer (4-20 mg protein/ml) and was stored at -80° C. until assayed.
CoA-IT activity was measured in 1.5 ml centrifuge tubes in a total volume of 100 ul. Microsomes were diluted in assay buffer to the desired protein concentration (6-20 ug/tube). The reaction was initiated by addition of [3H ]1-alkyl-2-lyso-sn-glycero-3-phosphocholine (GPC) (~0.1 uCi/tube) and 1 μM final cold 1-alkyl-2-lyso-GPC in assay buffer with 0.25 mg/ml fatty acid-poor bovine serumalbumin (BSA) (Calbiochem, La Jolla, Calif.). [3H]1-2-alkyl-2-lyso-GPC, approximately 50 Ci/mmol, was from NEN-Dupont (Boston, Mass.) and cold 1-alkyl-2-lyso-GPC was from Biomol (Plymouth Meeting, Pa). Microsomes were pretreated with desired agents for the desired time (10 minutes) before the addition of [3H]1-alkyl-2-lyso-GPC. The reaction was run for the desired time (10 minutes) at 37° C. The reaction was stopped and the lipids extracted by addition of 100 ul of chloroform:methanol (1:2, v/v) followed by 100 ul of chloroform and 100 ul of 1M KCI. The samples were vortexed and centrifuged at high speed in a microfuge for 2-3 minutes. An aliquot of the chloroform-extracted materials were separated, usually by TLC in chloroform/methanol/acetic acid/water (50:25:8:4, v/v), visualized by radioscanning (Bioscan) and the product, [3H] 1-alkyl-2-acyl-GPC, was scraped and quantified by liquid scintillation spectroscopy. […] Other methods can be used to separate substrate from product, including but not limited to column chromatography, affinity chromatography and post reaction derivitization.

[1] = system: TPA-induced Mouse Ear Inflammation; test: Assay (g): TPA-induced Mouse Ear Inflammation (edema and MPO); assay type: in vivo; conditions: for TPA % change in edema / change in MPO for TPA model / MPO ED50 / edema ED50: topical; for TPA % change in edema / change in MPO for TPA model: doses of 0.2, 0.1 and 0.3 for dexamethasone, scalaradial, WY 50,295 respectively; for MPO ED50 / edema ED50: TPA ear model
Method: (§1) Male Balb/c inbred mice were obtained from Charle River Breeding Laboratories (Kingston, N.Y.). Within a single experiment mice (22-25 g) were age-matched. These in vivo experiments typically involved use of 5-6 animals/group.
TPA (12-0-tetradecanoylphorbol 13-acetate) (Sigma Chemical Company) in acetone (4 mg/20 ml) was applied to the inner and outer surfaces of the left ear of BALB/c male mice. The thickness of both ears was then measured with a dial micrometer (Mitutoyo, Japan) at both 2 and 4 hours after treatment, and the data expressed as the change in thickness (10^-3 cm) between treated and untreated ears. […] After measuring the edema, the inflammed left ears were removed and stored at -70° C. until they were assayed for MPO (myeloperoxidase) activity where appropriate.
On the day of the assay, partially thawed ear tissues were minced and then homogenized (10% w/v) with a Tissumizer homogenizer (Tekmar Co.) in 50 mM phosphate buffer (pH 6) containing 0.5% HTAB. The tissue homogenates were taken through three cycles of freeze-thaw, followed by brief sonication (10 sec). The method of Bradley et al. was used with modifications as described. […] Supernatant MPO activity was quantified kinetically (change in absorbance measured over 3 min, sampled at 15-sec intervals) using a Beckman DU-7 spectrophotometer and a Kinetics Analysis package (Beckman Instruments, Inc.). One unit of MPO activity is defined as that degrading one micromole of peroxide per minute at 25° C.
Statistical analysis was done using Student's "t" test.

[2] = system: Arachidonic acid induced ear inflammation; test: Assay (h): Arachidonic acid induced ear inflammation assay; assay type: in vivo, mouse; conditions: for AA % change in edema / change in MPO for AA: topical, doses of 0.2, 0.1 and 0.3 for dexamethasone, scalaradial, WY 50,295 respectively; for activity in the AA ear model: @ 1 mg
Method: as §1
Arachidonic acid is dissolved in acetone ([…]) to the left ear of BALB/c male mice. The thickness of both ears was measured with a constant pressure thickness guage 1 hour after treatment and the data expressed as the change in thickness between treated and untreated ears. Test compounds or vehicle are given at the time of AA applciation. The inflammatory cell infiltration is measured by MPO activity as described above in the TPA ear edema assay. After the edema measurements are made, the inflamed ears are removed and assayed for MPO activity.

human Monocytes = test: Assay (f): stimulated eicosanoid release by human monocytes; assay type: cell-based; conditions: Monocyte
Method: Human Monocyte Isolation. Leukocyte-rich leukopaks obtained from Biological Specialties (Lansdale, Pa.) were collected from male volunteers who were not talking antiinflammatory drugs. Leukopaks were centrifuged (90×g for 15 min) twice to remove the platelet-rich plasma. The cell pellet was washed by centrifugation and resuspended in HBSS without Ca^2+ or Mg^2+. Histopaque 1077 was layered under the cell suspension and centrifuged at 400×g for 30 min to obtain the buffy coat. The interfacial buffy coat, containing monocytes and lymphocytes, was removed and saved. The buffy coat was washed twice with HBSS without Ca^2+ or Mg^2+ by centrifugation. […]
Measurement of Stimuli-Induced Eicosanoid Release. […] (A23187, 1 μM,(15 min). The reaction was terminated by reduction of pH through addition of citric acid and centrifugation (10 min, 400×g, 4° C.). Cell viability was monitored before and after experiments using trypan blue exclusion. The cell-free media was decanted and stored at -70° C. until analyzed. Prostaglandin E2 and LTC4 were directly measured in cell-free media using enzyme immunoassay (EIA) kits purchased from Caymen Chemical Co. (Ann Arbor, Mich.). Sample or standard dilutions were made with appropriate media and analyzed in triplicate. Results were obtained by extrapolation from a standard curve prepared in the media and expressed as pg or ng/ml of sample.

Structure (SMILES): O=S1(=O)CCn2c1nc(-c1ccc(F)cc1)c2-c1ccncc1 [6-(4'-Fluorophenyl)-5-(4-pyridyl)2,3-dihydroimidzo-[2,1-b]thiazole-dioxide]
effect on CoA-IT activity (CoA-IT; at concentrations up to 100 μM): no effect

Structure (SMILES): CN(C)CCC=C1c2ccccc2COc2ccccc21 [Doxepine]
effect on CoA-IT activity (CoA-IT; at concentrations up to 100 μM): did not inhibit

Structure (SMILES): COc1ccc2c(c1)c(CC(=O)O)c(C)n2C(=O)c1ccc(Cl)cc1 [indomethicin]
effect on CoA-IT activity (CoA-IT; at concentrations up to 100 μM): no effect

Structure (SMILES): CC(=O)O[C@H]1C[C@@H]2[C@@]3(C)CCCC(C)(C)[C@@H]3CC[C@@]2(C)[C@@H]2CC=C(C=O)[C@H](C=O)[C@@]12C [scalaradial]
TPA % change in edema [1]: -46%
change in MPO for TPA model [1]: -65
AA % change in edema [2]: -11%
change in MPO for AA [2]: -33

Structure (SMILES): COc1cccc2c1cc([N+](=O)[O-])c1c(C(=O)O)cc3c(c12)OCO3 [aristolochic acid]
effect on CoA-IT activity (CoA-IT; at concentrations up to 500 μM): no effect

Structure (SMILES): CCC(C)(C)c1ccc(Oc2ccc(C(F)(F)F)cc2NC(=O)Nc2ccc(Cl)c(C(F)(F)F)c2)c(S(=O)(=O)O)c1 [Example 3, 2-[2-[3-(4-Chloro-3-trifluoromethylphenyl)ureido]-4-trifluoromethylphenoxy]-5-(1,1-dimethylpropyl)benzenesulfonic acid, sodium salt]
MPO ED50 [1]: 0.36 mg/ear
edema ED50 [1]: 0.32 mg/ear
activity in the AA ear model [2]: -22

Structure (SMILES): C[C@@H]1C[C@H]2[C@@H]3CCC4=CC(=O)C=C[C@]4(C)[C@@]3(F)[C@@H](O)C[C@]2(C)[C@@]1(O)C(=O)CO [dexamethasone]
TPA % change in edema [1]: -50%
change in MPO for TPA model [1]: -54
AA % change in edema [2]: -10%
change in MPO for AA [2]: 0

Structure (SMILES): CCN(CC)CCCC(C)Nc1c2ccc(Cl)cc2nc2ccc(OC)cc12 (centres unmarked) [quinacrine]
effect on CoA-IT activity (CoA-IT; at concentrations up to 500 μM): no effect

Structure (SMILES): CC(C(=O)O)c1ccc2cc(OCc3ccc4ccccc4n3)ccc2c1 (centres unmarked) [WY 50,295]
TPA % change in edema [1]: -18%
change in MPO for TPA model [1]: -36
AA % change in edema [2]: -50%
change in MPO for AA [2]: -90

Structure (SMILES): Fc1ccc(-c2nc3n(c2-c2ccncc2)CCS3)cc1 [6-(4'-Fluorophenyl)-5-(4pyridyl)-2,3-dihydroimidzo-[2,1-b]thiazole]
effect on CoA-IT activity (CoA-IT; at concentrations up to 100 μM): no effect

IC50 (human Monocytes; LTC4 release, A23187, read-out: LTC4 (as an IC50)): 1000 nM
IC50 (human Monocytes; PGE2 release, A23187, read-out: PGE2 (as an IC50)): > 10000 nM
Structure (SMILES): CCC(C)(C)c1ccc(Oc2ccc(C(F)(F)F)cc2NC(=O)Nc2cc(C(F)(F)F)cc(C(F)(F)F)c2)c(S(=O)(=O)O)c1 [Example 2, 2-[2-[3-[3,5-Bis(trifluoromethyl)phenyl]ureido]-4-trifluoromethylphenoxy]5-(1,1-dimethylpropyl)benzenesulfonic acid, sodium salt]
MPO ED50 [1]: 0.25 mg/ear
edema ED50 [1]: 0.87 mg/ear
inhibition in these animal models ([1]; mouse ear inflammation models (TPA and AA)): positive inhibition
activity in the AA ear model [2]: -25

Structure (SMILES): COc1ccc2cc([C@H](C)C(=O)O)ccc2c1 [naproxen]
effect on CoA-IT activity (CoA-IT; at concentrations up to 100 μM): no effect

Structure (SMILES): Cc1cc(C(C)(C)C)c(O)c(C(C)(C)C)c1 [BHT]
effect on CoA-IT activity (CoA-IT; at concentrations up to 100 μM): no effect
